Data from US10526295B2, “Nuclear transport modulators and uses thereof” (Karyopharm Therapeutics Inc., priority 2015, dated 2020).

Experiments:
Type in all cases: cell-based
MM1S cells = experiment: MTT cell proliferation assay (MM1S); conditions: Homo sapiens, MM1.S; MM1S multiple myeloma cells; approximately 64-72 hours incubation; 1 nM to 30 μM
Procedure: (§1) The MTT cell proliferation assay was used to study the cytotoxic properties of the compounds. The assay was performed according to the method described by Roche Molecular Biochemicals, with minor modifications. The assay is based on the cleavage of the tetrazolium salt, MTT, in the presence of an electron-coupling reagent. The water-insoluble formazan salt produced must be solubilized in an additional step. Cells grown in a 96-well tissue culture plate were incubated with the MTT solution for approximately 4 hours. After this incubation period, a water-insoluble formazan dye formed. After solubilization, the formazan dye was quantitated using a scanning multi-well spectrophotometer (ELISA reader). […] The cells were seeded at 5,000-10,000 cells in each well of 96-well plate in 100 μL of fresh culture medium and were allowed to attach overnight. The stock solutions of the compounds were diluted in 100 μL cell culture medium to obtain eight concentrations of each test compound, ranging from 1 nM to 30 μM. […] All optical densities were measured at 490 nm using a Vmax Kinetic Microplate Reader (Molecular Devices). In most cases, the assay was performed in duplicate and the results were presented as a mean percent inhibition to the negative control±SE. The following formula was used to calculate the percent of inhibition: Inhibition (%)=(1−(ODo/OD))×100.
(§2) The compounds were tested against Z138, MM1S and 3T3 cells. The Z138 cell line is a mature B-cell acute lymphoblastic leukemia cell line derived from a patient with chronic lumphocytic leukemia. The MM1S cell line was established from the peripheral blood of a human multiple myeloma patient. 3T3 cells are standard fibroblast cells; they were originally isolated from Swiss mouse embryo tissue.

Z138 cells = experiment: MTT cell proliferation assay (Z138); conditions: Homo sapiens, Z-138, approximately 64-72 hours incubation, 1 nM to 30 μM
Procedure: as §1, §2

3T3 cells = experiment: MTT cell proliferation assay (3T3); conditions: Mus musculus, NIH3T3; 3T3 fibroblast cells; approximately 64-72 hours incubation; 1 nM to 30 μM
Procedure: as §1, §2

SMILES	IC50 (MM1S cells) [nM]	IC50 (Z138 cells) [nM]	IC50 (3T3 cells) [nM]
NC(=O)/C(=C/n1cnc(-c2cc(C(F)(F)F)cc(C(F)(F)F)c2)n1)c1ccc(S(=O)(=O)NC2CC2)cc1 [Compound 100, (E)-3-(3-(3,5-bis(trifluoromethyl)phenyl)-1H-1,2,4-triazol-1-yl)-2-(4-(N-cyclopropylsulfamoyl)phenyl)acrylamide]	< 100	< 100	> 30000
NC(=O)/C(=C/n1cnc(-c2cc(C(F)(F)F)cc(C(F)(F)F)c2)n1)c1ccc(S(=O)(=O)C2CC2)cc1 [Compound 101, (E)-3-(3-(3,5-bis(trifluoromethyl)phenyl)-1H-1,2,4-triazol-1-yl)-2-(4-(cyclopropylsulfonyl)phenyl)acrylamide]	< 100	< 100	< 100
CS(=O)(=O)Nc1cccc(/C(=C\n2cnc(-c3cc(C(F)(F)F)cc(C(F)(F)F)c3)n2)C(N)=O)c1 [Compound 102, (E)-3-(3-(3,5-bis(trifluoromethyl)phenyl)-1H-1,2,4-triazol-1-yl)-2-(3-(methylsulfonamido)phenyl)acrylamide]	100 to 5000	100 to 5000	> 30000
CS(=O)(=O)c1ccc(/C(=C\n2cnc(-c3cc(C(F)(F)F)cc(C(F)(F)F)c3)n2)C(N)=O)cc1 [Compound 103, (E)-3-(3-(3,5-bis(trifluoromethyl)phenyl)-1H-1,2,4-triazol-1-yl)-2-(4-(methylsulfonyl)phenyl)acrylamide]	< 100	100 to 5000	> 30000
CN(C)S(=O)(=O)c1ccc(/C(=C\n2cnc(-c3cc(C(F)(F)F)cc(C(F)(F)F)c3)n2)C(N)=O)cc1 [Compound 104, (E)-3-(3-(3,5-bis(trifluoromethyl)phenyl)-1H-1,2,4-triazol-1-yl)-2-(4-(N,N-dimethylsulfamoyl)phenyl)acrylamide]	100 to 5000	100 to 5000	> 30000
NC(=O)/C(=C/n1cnc(-c2cc(C(F)(F)F)cc(C(F)(F)F)c2)n1)c1ccc(S(=O)(=O)N2CCC(F)(F)CC2)cc1 [Compound 105, (E)-3-(3-(3,5-bis(trifluoromethyl)phenyl)-1H-1,2,4-triazol-1-yl)-2-(4-(4,4-difluoropiperidin-1-ylsulfonyl)phenyl)acrylamide]	< 100	< 100	100 to 5000
NC(=O)/C(=C/n1cnc(-c2cc(C(F)(F)F)cc(C(F)(F)F)c2)n1)c1ccc(S(=O)(=O)N2CCC(C(F)(F)F)CC2)cc1 [Compound 106, (E)-3-(3-(3,5-bis(trifluoromethyl)phenyl)-1H-1,2,4-triazol-1-yl)-2-(4-(4-(trifluoromethyl)piperidin-1-ylsulfonyl)phenyl)acrylamide]	100 to 5000	100 to 5000	> 30000
NC(=O)/C(=C/n1cnc(-c2cc(C(F)(F)F)cc(C(F)(F)F)c2)n1)c1ccc(S(=O)(=O)N2CCC2)cc1 [Compound 107, (E)-2-(4-(azetidin-1-ylsulfonyl)phenyl)-3-(3-(3,5-bis(trifluoromethyl)phenyl)-1H-1,2,4-triazol-1-yl)acrylamide]	< 100	< 100	100 to 5000
NC(=O)/C(=C/n1cnc(-c2cc(C(F)(F)F)cc(C(F)(F)F)c2)n1)c1ccc(S(=O)(=O)N2CCOCC2)cc1 [Compound 108, (E)-3-(3-(3,5-bis(trifluoromethyl)phenyl)-1H-1,2,4-triazol-1-yl)-2-(4-(morpholinosulfonyl)phenyl)acrylamide]	< 100	100 to 5000	100 to 5000
NC(=O)/C(=C/n1cnc(-c2cc(C(F)(F)F)cc(C(F)(F)F)c2)n1)c1ccc(S(=O)(=O)N2CCCCC2)cc1 [Compound 109, (E)-3-(3-(3,5-bis(trifluoromethyl)phenyl)-1H-1,2,4-triazol-1-yl)-2-(4-(piperidin-1-ylsulfonyl)phenyl)acrylamide]	100 to 5000	100 to 5000	100 to 5000
NC(=O)/C(=C/n1cnc(-c2cc(C(F)(F)F)cc(C(F)(F)F)c2)n1)c1ccc(S(=O)(=O)N2CC(F)C2)cc1 [Compound 110, (E)-3-(3-(3,5-bis(trifluoromethyl)phenyl)-1H-1,2,4-triazol-1-yl)-2-(4-(3-fluoroazetidin-1-ylsulfonyl)phenyl)acrylamide]	< 100	< 100	100 to 5000
NC(=O)/C(=C/n1cnc(-c2cc(C(F)(F)F)cc(C(F)(F)F)c2)n1)c1ccc(S(=O)(=O)N2CC(F)(F)C2)cc1 [Compound 111, (E)-3-(3-(3,5-bis(trifluoromethyl)phenyl)-1H-1,2,4-triazol-1-yl)-2-(4-(3,3-difluoroazetidin-1-ylsulfonyl)phenyl)acrylamide]	< 100	< 100	100 to 5000
NC(=O)/C(=C/n1cnc(-c2cc(C(F)(F)F)cc(C(F)(F)F)c2)n1)c1ccc(S(=O)(=O)N2CCCC2)cc1 [Compound 112, (E)-3-(3-(3,5-bis(trifluoromethyl)phenyl)-1H-1,2,4-triazol-1-yl)-2-(4-(pyrrolidin-1-ylsulfonyl)phenyl)acrylamide]	< 100	< 100	100 to 5000
NC(=O)/C(=C/n1cnc(-c2cc(C(F)(F)F)cc(C(F)(F)F)c2)n1)c1ccc(S(=O)(=O)N2CCC(F)(F)C2)cc1 [Compound 113, (E)-3-(3-(3,5-bis(trifluoromethyl)phenyl)-1H-1,2,4-triazol-1-yl)-2-(4-(3,3-difluoropyrrolidin-1-ylsulfonyl)phenyl)acrylamide]	< 100	< 100	< 100
NC(=O)/C(=C/n1cnc(-c2cc(C(F)(F)F)cc(C(F)(F)F)c2)n1)c1ccc(S(=O)(=O)N2CCC(F)CC2)cc1 [Compound 114, (E)-3-(3-(3,5-bis(trifluoromethyl)phenyl)-1H-1,2,4-triazol-1-yl)-2-(4-(4-fluoropiperidin-1-ylsulfonyl)phenyl)acrylamide]	< 100	< 100	< 100
CN1CCN(S(=O)(=O)c2ccc(/C(=C\n3cnc(-c4cc(C(F)(F)F)cc(C(F)(F)F)c4)n3)C(N)=O)cc2)CC1 [Compound 115, (E)-3-(3-(3,5-bis(trifluoromethyl)phenyl)-1H-1,2,4-triazol-1-yl)-2-(4-(4-methylpiperazin-1-ylsulfonyl)phenyl)acrylamide]	100 to 5000	100 to 5000	100 to 5000
CC1(C)CN(S(=O)(=O)c2ccc(/C(=C\n3cnc(-c4cc(C(F)(F)F)cc(C(F)(F)F)c4)n3)C(N)=O)cc2)CCO1 [Compound 116, (E)-3-(3-(3,5-bis(trifluoromethyl)phenyl)-1H-1,2,4-triazol-1-yl)-2-(4-(2,2-dimethylmorpholinosulfonyl)phenyl)acrylamide]	100 to 5000	100 to 5000	100 to 5000
NC(=O)/C(=C/n1cnc(-c2cc(C(F)(F)F)cc(C(F)(F)F)c2)n1)c1ccc(S(=O)(=O)N2CC[C@@H](F)C2)cc1 [Compound 117, (R,E)-3-(3-(3,5-bis(trifluoromethyl)phenyl)-1H-1,2,4-triazol-1-yl)-2-(4-(3-fluoropyrrolidin-1-ylsulfonyl)phenyl)acrylamide]	< 100	< 100	100 to 5000
NC(=O)/C(=C/n1cnc(-c2cc(C(F)(F)F)cc(C(F)(F)F)c2)n1)c1ccc(S(=O)(=O)N2CCCOCC2)cc1 [Compound 118, (E)-2-(4-(1,4-oxazepan-4-ylsulfonyl)phenyl)-3-(3-(3,5-bis(trifluoromethyl)phenyl)-1H-1,2,4-triazol-1-yl)acrylamide]	< 100	< 100	100 to 5000
NC(=O)/C(=C/n1cnc(-c2cc(C(F)(F)F)cc(C(F)(F)F)c2)n1)c1cccc(S(=O)(=O)N2CCOCC2)c1 [Compound 119, (E)-3-(3-(3,5-bis(trifluoromethyl)phenyl)-1H-1,2,4-triazol-1-yl)-2-(3-(morpholinosulfonyl)phenyl)acrylamide]	100 to 5000	100 to 5000	> 30000
NC(=O)/C(=C/n1cnc(-c2cc(C(F)(F)F)cc(C(F)(F)F)c2)n1)c1cccc(S(=O)(=O)N2CCC(F)CC2)c1 [Compound 120, (E)-3-(3-(3,5-bis(trifluoromethyl)phenyl)-1H-1,2,4-triazol-1-yl)-2-(3-(4-fluoropiperidin-1-ylsulfonyl)phenyl)acrylamide]	100 to 5000	100 to 5000	> 30000
NC(=O)/C(=C/n1cnc(-c2cc(C(F)(F)F)cc(C(F)(F)F)c2)n1)c1cccc(S(=O)(=O)N2CC(F)(F)C2)c1 [Compound 121, (E)-3-(3-(3,5-bis(trifluoromethyl)phenyl)-1H-1,2,4-triazol-1-yl)-2-(3-(3,3-difluoroazetidin-1-ylsulfonyl)phenyl)acrylamide]	100 to 5000	100 to 5000	> 30000
